# According to US20240245704A1, “PHARMACEUTICAL COMPOSITION AND USE OF MULTI-KINASE INHIBITOR” (TRANSTHERA SCIENCES (NANJING), INC., priority 2021, published 2024):
# Tested on: human triple negative breast cancer BC408 subcutaneous xenograft tumor model
# Experiment: In vivo pharmacodynamic study on triple negative breast cancer patient-derived xenograft (PDX) subcutaneous tumor model
# Design: species or system nude mice
# Conditions: for TGI: TGI=1-T/C from relative tumor volumes
# Protocol: The tumor masses were inoculated into the right back of the mice, the animals were weighed before administration, and tumor volumes were measured. Grouping was designed in blocks according to the tumor volume, with 8 mice per group except for the vehicle control, which contained 6 mice.
# Administration was carried out as in Table 3 below.
# Animals were monitored daily for health status and mortality, body weight and tumor volume were measured twice a week, and samples were collected after the last administration. […] T/C % is the relative tumor proliferation rate, i.e., the percentage of the relative tumor volume in the treatment and control groups at a given time point. T and C are relative tumor volumes (RTVs) of the treatment and control groups at a given time point, respectively. The calculation formula is as follows: T/C %=TRTV/CRTV×100% (TRTV: mean RTV for treatment group; CRTV: mean RTV for vehicle control group; RTV=Vt/V0, wherein V0 is the tumor volume of the animal at the time of grouping, and Vt is the tumor volume of the animal after treatment).
# [1] = BC408 PDX in female nude mice, compound 29 15 mg/kg oral Qd*5 days/week, paclitaxel injection 25 mg/kg intraperitoneal Qw, 5 weeks
Structure (SMILES),Tumor volume [1],TGI [1],"Inhibitory effect on the triple negative breast cancer PDX subcutaneous tumor model (in words) (BC408 PDX, doses as in Table 3)"
Cc1[nH]nc2c1N=C(c1ccccc1Cl)c1cnc(N3CCOCC3)cc1N2 [Compound 29],666 mm^3,72%,significant inhibitory effect
"CC(=O)O[C@H]1C(=O)[C@@]2(C)[C@H]([C@H](OC(=O)c3ccccc3)[C@]3(O)C[C@H](OC(=O)[C@H](O)[C@@H](NC(=O)c4ccccc4)c4ccccc4)C(C)=C1C3(C)C)[C@]1(OC(C)=O)CO[C@@H]1C[C@@H]2O [Paclitaxel, paclitaxel, reference compound]",,58%,
